Test system: liver MPS NASH model (PHH, KC and HSC co-cultures)
Experiment: Cue study: pro-fibrotic biomarkers TIMP-1, pro-collagen 1, fibronectin (Fig 5c)
Format: cell-based, human
Details: for Fibronectin (Fold change in cytokine production compared to control) / Pro-collagen 1 (Fold change in cytokine production compared to control) / TIMP-1 (Fold change in cytokine production compared to control): fat medium + cue
Text: Assessment of gene expression changes was supplemented by assessment of the secretome produced by NASH microtissues in the MPS after exposure to the various cues. Increased pro-inflammatory cytokine secretion is a defining characteristic in NASH patients, so we conducted a Luminex cytokine array covering 42 different biomarkers, cytokines and chemokines secreted into the culture media of the different microtissues at multiple time points. We consistently detected 27 out of the 42 biomarkers and observed that there was differential expression of cytokines and chemokines driven by the different cues applied to the micro-tissue (Fig. 5a, b). The LPS cue and the presence of higher NPC numbers were responsible for driving the largest increase in cytokine and chemokine release, with the largest increases in cytokines measured on day 14 (Fig. 5b). […] Similarly, to the cytokine production, these changes were not further enhanced by combining cues, as all the cue combinations containing TGFβ had the highest expression (Supp. Fig. 17c).
Fig. 5 Systems biology interrogation of liver MPS NASH model to determine physiologically relevant cues that promote soluble biomarker changes to mimic advanced NASH disease state. PHH, KC and HSC co-cultures were cultured in the MPS platform under a variety of conditions for 14 days to test number of NPCs, presence of fat, fructose, cholesterol, LPS and TGFβ for effects on the soluble biomarker profile of the liver MPS NASH model. Expression of biomarkers, cytokines and chemokines were compared, all concentrations were normalised by Z-transformation to allow comparison and shown relative to mean for each marker (white = not detected). a Cytokine expression compared with varying levels of NPCs; b for the high NPC group in the presence of additional cues; c Expression of pro-fibrotic biomarkers with varying NPC content and with additional varying cues in high NPC condition (additional data in Supp. Fig. 17). d Graphical summary of the changes that occur in the NASH model in the presence of Fat and Fat + TGFβ. All data were generated from a minimum of three independent replicate samples per condition.
The MPS LC12 plates consists of 12 individual bioreactors that contain pneumatically driven micro-pumps to recirculate cell culture medium through a collagen-coated scaffold. Cells were cultured using the protocol previously described[20],[21], but briefly, PHH were seeded at a density of 6 × 10^5 viable cells per well on the LC12 plates with each NPC population (KC and/or HSC) at a density of 6 × 10^4 viable cells per well. Each well contained a final volume of 1.6 mL of medium per well and maintained under a flow rate of 1.0 µL/s. Cells were seeded in Williams E medium containing primary hepatocyte thawing and plating supplements (Life Technologies, USA) and cultured initially under downward flow for 8 h before the flow was automatically reversed to upward flow for the next 16 h of culture. Microtissues were then cultured in either HEP-Lean or HEP-Fat medium, both media’s are proprietary to CN Bio Innovations Ltd. The HEP-Fat medium is a derivative of the HEP-LEAN medium and contains a mixture of saturated and unsaturated FFAs, as well as physiologically relevant quantities of insulin and sugars. Complete media changes were performed on all wells every 48–72 h. For certain experiments, the media was supplemented with additional additives from day 4 onwards: 1 ng/ml LPS (lipopolysaccharides from Escherichia coli O111:B4) (Sigma Aldrich, UK), 1 ng/ml recombinant TGF beta 1 protein (Abcam, UK); 500 µM Fructose (Sigma Aldrich, UK), 50 µg/ml Cholesterol (Sigma Aldrich, UK). […]

## TGFβ: recombinant TGF beta 1 protein (Abcam), 1 ng/ml cue
Day 6, high NPC
  Fibronectin (Fold change in cytokine production compared to control): 1.218
  Pro-collagen 1 (Fold change in cytokine production compared to control): 1.954
  TIMP-1 (Fold change in cytokine production compared to control): 2.132
Day 11, high NPC
  Fibronectin (Fold change in cytokine production compared to control): 1.379
  Pro-collagen 1 (Fold change in cytokine production compared to control): 1.672
  TIMP-1 (Fold change in cytokine production compared to control): 1.0946
Day 14, high NPC
  Fibronectin (Fold change in cytokine production compared to control): 0.05285
  Pro-collagen 1 (Fold change in cytokine production compared to control): 0.4105
  TIMP-1 (Fold change in cytokine production compared to control): 0.9486
Cue study
  pro-collagen 1, fibronectin and TIMP-1 expression: most significant increases
